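Cells were grown in 96-well plates and exposed to each compound for 48 hours at five concentrations; endpoints were interpolated linearly between bracketing concentrations, or set to the highest concentration if not reached. GI50 = concentration required for 50% inhibition of growth.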 Active and inactive are the calls of the source. Cut-off read from the data, not from the text of the source: active = GI50 up to about 1.1 µM and inactive = higher.
Legend:
Experiment in all cases: NCI tumour cell line growth inhibition, 48 h
A549 = test system: A549
DU-145 = test system: DU-145
SK-MEL-2 = test system: SK-MEL-2
MOLT-4 = test system: MOLT-4
NCI-H522 = test system: NCI-H522
HT-29 = test system: HT-29
SF-539 = test system: SF-539
PC-3 = test system: PC-3
UACC-62 = test system: UACC-62
SK-OV-3 = test system: SK-OV-3
CAKI-1 = test system: CAKI-1
Hs-578T = test system: Hs-578T
SNB-19 = test system: SNB-19
786-0 = test system: 786-0
TK-10 = test system: TK-10
OVCAR-5 = test system: OVCAR-5
HCT-116 = test system: HCT-116
U-251 = test system: U-251
MDA-MB-435 = test system: MDA-MB-435
SW-620 = test system: SW-620
SK-MEL-5 = test system: SK-MEL-5
NCI/ADR-RES = test system: NCI/ADR-RES
OVCAR-8 = test system: OVCAR-8
OVCAR-3 = test system: OVCAR-3
SR = test system: SR
IGROV-1 = test system: IGROV-1
HL-60 = test system: HL-60
SF-295 = test system: SF-295
ACHN = test system: ACHN
LOX IMVI = test system: LOX IMVI
BT-549 = test system: BT-549
M14 = test system: M14
UO-31 = test system: UO-31
CCRF-CEM = test system: CCRF-CEM
HOP-62 = test system: HOP-62
K562 = test system: K562
A498 = test system: A498
NCI-H460 = test system: NCI-H460
MCF7 = test system: MCF7
COLO 205 = test system: COLO 205
HCT-15 = test system: HCT-15
UACC-257 = test system: UACC-257
Malme-3M = test system: Malme-3M
T47D = test system: T47D
KM12 = test system: KM12
RPMI-8226 = test system: RPMI-8226
RXF 393 = test system: RXF 393
EKVX = test system: EKVX
NCI-H226 = test system: NCI-H226
SN12C = test system: SN12C
NCI-H23 = test system: NCI-H23
SF-268 = test system: SF-268
MDA-N = test system: MDA-N

Q: How did the GI50 (A549) turn out when `COc1cc2c3c(n(C)c(=O)c2cc1OC)-c1cc2c(cc1/C3=C\CCCI)OCO2` was run?
A: Its GI50 is 38.9 µM (inactive).

Q: What about the GI50 (DU-145) of the same compound?
A: The GI50 was 1.17 µM (inactive).

Q: And the GI50 (SK-MEL-2)?
A: Its GI50 is > 100 µM (inactive).

Q: What about the GI50 (MOLT-4) of the same compound?
A: The GI50 was 0.238 µM (active).

Q: And the GI50 (NCI-H522)?
A: Its GI50 is 6.75 µM (inactive).

Q: And the GI50 (HT-29)?
A: The GI50 was 20.4 µM (inactive).

Q: And the GI50 (SF-539)?
A: The GI50 was 3.94 µM (inactive).

Q: And the GI50 (PC-3)?
A: Its GI50 is > 53.5 µM (inactive).

Q: What about the GI50 (UACC-62) of the same compound?
A: The GI50 was 4.49 µM (inactive).

Q: What about the GI50 (SK-OV-3) of the same compound?
A: The GI50 was 20.9 µM (inactive).

Q: What about the GI50 (CAKI-1) of the same compound?
A: The GI50 was 4.35 µM (inactive).

Q: And the GI50 (Hs-578T)?
A: The GI50 was 4.11 µM (inactive).

Q: What about the GI50 (SNB-19) of the same compound?
A: Its GI50 is 13.7 µM (inactive).

Q: And the GI50 (786-0)?
A: Its GI50 is 5.32 µM (inactive).

Q: And the GI50 (TK-10)?
A: The GI50 was 0.649 µM (active).

Q: And the GI50 (OVCAR-5)?
A: The GI50 was > 4.65 µM (inactive).

Q: And the GI50 (HCT-116)?
A: The GI50 was 1.47 µM (inactive).

Q: What about the GI50 (U-251) of the same compound?
A: Its GI50 is 4.21 µM (inactive).

Q: What about the GI50 (MDA-MB-435) of the same compound?
A: The GI50 was 19.3 µM (inactive).

Q: And the GI50 (SW-620)?
A: Its GI50 is 0.533 µM (active).

Q: What about the GI50 (SK-MEL-5) of the same compound?
A: The GI50 was 10.4 µM (inactive).

Q: What about the GI50 (NCI/ADR-RES) of the same compound?
A: The GI50 was 18.1 µM (inactive).

Q: What about the GI50 (OVCAR-8) of the same compound?
A: Its GI50 is 1.73 µM (inactive).

Q: What about the GI50 (OVCAR-3) of the same compound?
A: The GI50 was > 61.1 µM (inactive).

Q: And the GI50 (SR)?
A: Its GI50 is 0.239 µM (active).

Q: And the GI50 (IGROV-1)?
A: The GI50 was 1.58 µM (inactive).

Q: What about the GI50 (HL-60) of the same compound?
A: Its GI50 is > 47.1 µM (inactive).

Q: And the GI50 (SF-295)?
A: The GI50 was 0.904 µM (active).

Q: And the GI50 (ACHN)?
A: Its GI50 is 0.531 µM (active).

Q: What about the GI50 (LOX IMVI) of the same compound?
A: Its GI50 is 8.3 µM (inactive).

Q: What about the GI50 (BT-549) of the same compound?
A: Its GI50 is 1.7 µM (inactive).

Q: And the GI50 (M14)?
A: The GI50 was 2.61 µM (inactive).

Q: What about the GI50 (UO-31) of the same compound?
A: Its GI50 is 0.653 µM (active).

Q: What about the GI50 (CCRF-CEM) of the same compound?
A: Its GI50 is 1.29 µM (inactive).

Q: What about the GI50 (HOP-62) of the same compound?
A: The GI50 was 10 µM (inactive).

Q: What about the GI50 (K562) of the same compound?
A: The GI50 was 2.07 µM (inactive).

Q: What about the GI50 (A498) of the same compound?
A: Its GI50 is 2.38 µM (inactive).

Q: And the GI50 (NCI-H460)?
A: Its GI50 is 5.42 µM (inactive).

Q: And the GI50 (MCF7)?
A: The GI50 was 2.91 µM (inactive).

Q: And the GI50 (COLO 205)?
A: The GI50 was 18.1 µM (inactive).

Q: And the GI50 (HCT-15)?
A: The GI50 was 2.56 µM.

Q: What about the GI50 (UACC-257) of the same compound?
A: Its GI50 is > 100 µM (inactive).

Q: And the GI50 (Malme-3M)?
A: Its GI50 is 2.23 µM (inactive).

Q: What about the GI50 (T47D) of the same compound?
A: The GI50 was 0.7 µM (active).

Q: What about the GI50 (KM12) of the same compound?
A: The GI50 was > 87.9 µM (inactive).

Q: And the GI50 (RPMI-8226)?
A: Its GI50 is 3.92 µM (inactive).

Q: What about the GI50 (RXF 393) of the same compound?
A: The GI50 was 10.6 µM (inactive).

Q: What about the GI50 (EKVX) of the same compound?
A: Its GI50 is 30.1 µM (inactive).

Q: What about the GI50 (NCI-H226) of the same compound?
A: The GI50 was 1.34 µM (inactive).

Q: And the GI50 (SN12C)?
A: Its GI50 is 8.75 µM (inactive).

Q: What about the GI50 (NCI-H23) of the same compound?
A: The GI50 was 12.2 µM (inactive).

Q: And the GI50 (SF-268)?
A: The GI50 was 0.776 µM (active).

Q: What about the GI50 (MDA-N) of the same compound?
A: The GI50 was > 70.8 µM (inactive).

Source: ChEMBL document CHEMBL1201862, “PubChem BioAssay data set” (2004)
